Reference: patent publication US4596873A, “1,4,5,6,7,8-Hexahydro-2-alkyl-4-aryl-5-oxo-1,7-naphthyridine-3-carboxyl ic acid aromatic esters and pharmaceutically acceptable acid addition salts thereof useful as antihypertensive agents” (American Home Products Corporation, priority 1985, dated 1986)

Columns and labels:
[1] = system: spontaneously hypertensive rats; test: decrease in systolic blood pressure of spontaneously hypertensive rats; format: in vivo, rat
[2] = system: arterial actin-myosin interactions; test: inhibition of superprecipitation (antagonism of arterial actin-myosin interaction); format: biochemical; conditions: six minute time-point, mean±SEM
Method: (§1) The data reported herein was obtained at a six minute time-point rather than the 1.5, 5 and 12 minute time points indicated in the superprecipitation assay of the Silver et al. paper.
(§2) The following examples illustrate the preparation of a representative number of compounds of this invention. After each example, and Ca^+2 antagonist activity of the compound is presented in terms of percent relaxation of aortic tissue (P.R.) at 10^-5 M concentration. […] Inhibition of superprecipitation (Antag. of Actin-Myosin interaction) is expressed as percent inhibition (mean±standard error of the mean for at least 3 separate experiments) at a compound concentration. In the same manner, inhibition of myosin light chain phosphorylation (Antag. of MLCP) is expressed as a percent inhibition at a compound concentration. Similarly, the antihypertensive activity is reported in terms of millimeters mercury (mmHg) systolic blood pressure (B.P.) reduction at the stated time post 50 mg/kg oral dosing or other dosing as indicated.

[3] = system: Ca^+2 -calmodulin dependent myosin light chain phosphorylation; test: inhibition of Ca^+2-calmodulin dependent myosin light chain phosphorylation (MLCP); format: biochemical
Method: as §1, §2

SMILES | systolic blood pressure (B.P.) reduction ([1]; 10 mg/kg, 4 hours) [mmHg] | inhibition of superprecipitation (Antag. of Actin-Myosin) ([2]; 25 μM) [%] | inhibition of superprecipitation (Antag. of Actin-Myosin) ([2]; 50 μM) [%] | inhibition of superprecipitation (Antag. of Actin-Myosin) ([2]; 100 μM) [%] | inhibition of myosin light chain phosphorylation (Antag. of MLCP) ([3]; 25 μM) [%] | inhibition of myosin light chain phosphorylation (Antag. of MLCP) ([3]; 50 μM) [%] | inhibition of myosin light chain phosphorylation (Antag. of MLCP) ([3]; 100 μM) [%] | systolic blood pressure (B.P.) reduction ([1]; 50 mg/kg oral, 1.5 hours) [mmHg] | systolic blood pressure (B.P.) reduction ([1]; 50 mg/kg oral, 4 hours) [mmHg] | systolic blood pressure (B.P.) reduction ([1]; 10 mg/kg, 1.5 hours) [mmHg] | systolic blood pressure (B.P.) reduction ([1]; 25 mg/kg, 1.5 hours) [mmHg] | systolic blood pressure (B.P.) reduction ([1]; 25 mg/kg, 4 hours) [mmHg]
CC1=C(C(=O)OCCOc2ccccc2)C(c2c(F)c(F)c(F)c(F)c2F)C2=C(CNCC2=O)N1 (racemic) [Example 2, 1,4,5,6,7,8-Hexahydro-2-methyl-5-oxo-4-(pentafluorophenyl)-1,7-naphthyridine-3-carboxylic acid 2-phenoxyethyl ester] | -51 | 28±2 | 58±4 | 72±2 | 24±3 | 54±4 | 69±3 | – | – | – | – | –
CO[C@H](COC(=O)C1=C(C)NC2=C(C(=O)CNC2)C1c1c(F)c(F)c(F)c(F)c1F)c1ccccc1 (single isomer, unassigned) [Example 8 Diastereomer A, 1,4,5,6,7,8-Hexahydro-2-methyl-5-oxo-4(R or S-pentafluorophenyl)-1,7-naphthyridine-3-carboxylic acid (S)-2-methoxy-2-phenylethyl esters] | – | – | 28 | 69 | – | 28 | 63 | – | – | – | – | –
CO[C@H](COC(=O)C1=C(C)NC2=C(C(=O)CNC2)C1c1c(F)c(F)c(F)c(F)c1F)c1ccccc1 (single isomer, unassigned) [Example 8 Diastereomer B, 1,4,5,6,7,8-Hexahydro-2-methyl-5-oxo-4(R or S-pentafluorophenyl)-1,7-naphthyridine-3-carboxylic acid (S)-2-methoxy-2-phenylethyl esters] | – | – | 30 | 64 | – | 34 | 62 | – | – | – | – | –
CC1=C(C(=O)OCCOc2ccccc2)C(c2c(F)c(F)c(F)c(F)c2F)C2=C(CNCC2=O)N1 (single isomer, unassigned; (-)) [Example 3, (-)-1,4,5,6,7,8-Hexahydro-2-methyl-5-oxo-4-(pentafluorophenyl)-1,7-naphthyridine-3-carboxylic acid 2-phenoxyethyl ester] | – | – | 65 | 76 | – | 57 | 70 | – | – | – | – | –
COC(COC(=O)C1=C(C)NC2=C(C(=O)CNC2)C1c1cccc(Cl)c1Cl)c1ccccc1 (centres unmarked) [Example 1, 4-(2,3-Dichlorophenyl)-1,4,5,6,7,8-hexahydro-2-methyl-5-oxo-1,7-naphthyridine-3-carboxylic acid 2-methoxy-2-phenylethyl ester] | – | 43±2 | 75±3 | 83±3 | 38±3 | 66 | 76±2 | -53 | -30 | – | – | –
CO[C@@H](COC(=O)C1=C(C)NC2=C(C(=O)CNC2)C1c1c(F)c(F)c(F)c(F)c1F)c1ccccc1 (stereo partly drawn) [Example 6, 1,4,5,6,7,8-Hexahydro-2-methyl-5-oxo-4-(pentafluorophenyl)-1,7-naphthyridine-3-carboxylic acid (R)-2-methoxy-2-phenylethyl ester] | -49 | – | 64 | 74 | – | 56 | 70 | – | – | -56 | – | –
COC(COC(=O)C1=C(C)NC2=C(C(=O)CNC2)C1c1c(F)cccc1Cl)c1ccccc1 (centres unmarked) [Example 9, 4-(2-Chloro-6-fluorophenyl)-1,4,5,6,7,8-hexahydro-2-methyl-5-oxo-1,7-naphthyridine-3-carboxylic acid 2-methoxy-2-phenylethyl ester] | – | – | – | 40 | – | – | 44 | -37 | -14 | – | – | –
COC(COC(=O)C1=C(C)NC2=C(C(=O)CNC2)C1c1cccc(Cl)c1)c1ccccc1 (centres unmarked) [Example 11, 4-(3-Chlorophenyl)-1,4,5,6,7,8-hexahydro-2-methyl-5-oxo-1,7 naphthyridine-3-carboxylic acid 2-methoxy-2-phenylethyl ester] | – | – | – | 53 | – | – | 48 | -29 | -38 | – | – | –
COC(COC(=O)C1=C(C)NC2=C(C(=O)CNC2)C1c1ccccc1C(F)(F)F)c1ccccc1 (centres unmarked) [Example 12, 1,4,5,6,7,8-Hexahydro-2-methyl-5-oxo-4-[2-(trifluoromethyl)phenyl]-1,7-naphthyridine-3-carboxylic acid 2-methoxy-2-phenylethyl ester] | – | – | – | 30 | – | – | 24 | – | – | – | -56 | -56
CC1=C(C(=O)OC(C)COc2ccccc2)C(c2c(F)c(F)c(F)c(F)c2F)C2=C(CNCC2=O)N1 (centres unmarked) [Example 13, 1,4,5,6,7,8-Hexahydro-2-methyl-5-oxo-4-(pentafluorophenyl)-1,7-naphthyridine-3-carboxylic acid 1-methyl-2-phenoxyethyl ester] | – | 61 | – | 78 | 58 | – | 70 | -35 | -60 | – | – | –
CC1=C(C(=O)OCC2COc3ccccc3O2)C(c2c(F)c(F)c(F)c(F)c2F)C2=C(CNCC2=O)N1 (centres unmarked) [Example 14, 1,4,5,6,7,8-Hexahydro-2-methyl-5-oxo-4-(pentafluorophenyl)-1,7-naphthyridine-3-carboxylic acid 2,3-dihydro-1,4-benzodioxin-2-ylmethyl ester] | – | 65 | – | 80 | 59 | – | 76 | -46 | -42 | – | – | –
CC1=C(C(=O)OCCOc2ccccc2)C(c2ccccc2C)C2=C(CNCC2=O)N1 (centres unmarked) [Example 15, 1,4,5,6,7,8-Hexahydro-2-methyl-4-(2-methylphenyl)-5-oxo-1,7-naphthyridine-3-carboxylic acid 2-phenoxyethyl ester] | – | – | – | 66±5 | – | – | 61±5 | – | – | – | -29 | -39
CC1=C(C(=O)OCCOc2ccccc2)C(c2c(F)ccc(F)c2F)C2=C(CNCC2=O)N1 (centres unmarked) [Example 16, 1,4,5,6,7,8-Hexahydro-2-methyl-5-oxo-4-(2,3,6-trifluorophenyl)-1,7-naphthyrdine-3-carboxylic acid 2-phenoxyethyl ester] | – | – | – | 34 | – | – | 28 | – | – | – | – | -18
CC1=C(C(=O)OCCc2ccccc2)C(c2c(F)c(F)c(F)c(F)c2F)C2=C(CNCC2=O)N1 (centres unmarked) [Example 18, 1,4,5,6,7,8-Hexahydro-2-methyl-5-oxo-4-(pentafluorophenyl)-1,7-naphthyridine-3-carboxylic acid 2-phenylethyl ester] | -24 | 42 | 65 | 78±2 | 35 | 64 | 77±3 | – | – | -27 | – | –
CC1=C(C(=O)OCCOc2ccccc2)C(c2cccc(Cl)c2Cl)C2=C(CNCC2=O)N1.Cl (centres unmarked) [Example 19, 4-(2,3-Dichlorophenyl)-1,4,5,6,7,8-hexahydro-2-methyl-5-oxo-1,7-naphthyridine-3-carboxylic acid 2-phenoxyethyl ester, hydrochloride] | – | – | – | 71 | – | – | 69 | -50 | -73 | – | – | –
CC1=C(C(=O)OCC(C)(C)Oc2ccccc2)C(c2c(F)c(F)c(F)c(F)c2F)C2=C(CNCC2=O)N1.Cl (centres unmarked) [Example 20, 1,4,5,6,7,8-Hexahydro-2-methyl-5-oxo-4-(pentafluorophenyl)-1,7-naphthyridine-3-carboxylic acid 2-methyl-2-phenoxypropyl ester, hydrochloride] | – | – | – | 67 | – | – | 62 | – | – | – | -64 | -41
